Experimental findings from patent US20210379009A1, “ANTIBACTERIAL AGENT AGAINST ENTEROBACTERIUM WHICH CONTAINS EQUOL AS ACTIVE INGREDIENT” (priority 2018, published 2021) are described below.

What all share (type): cell-based
Test [1] deals with Escherichia coli (E. coli). Description: Growth inhibition on other bacterial species: Escherichia coli. As to conditions: 100 μg/mL; FIG. 4.
For test [2], the system named is Clostridioides difficile (NAP1/027 strain). Description: Growth inhibition on Clostridioides difficile NAP1/027 strain (OD600). As to conditions: for inhibition of the growth of Clostridioides difficile versus control: FIG. 2. The method, then:
Clostridioides difficile (NAP1/027 strain) was added to a medium containing equol in a concentration of 100 μg/mL, 75 μg/mL, 50 μg/mL, or 25 μg/mL (0 hour), and subsequently cultured to check the influence on the growth for 24 hours after the start of culture. The culture performed was totally under anaerobic conditions at 35° C.
Because equol dissolved in DMSO was used, a medium with addition only of DMSO was additionally subjected to measurement as a control.
The growth of the bacterium was examined by measuring the absorbance of each medium at 600 nm (OD600).
Equol is a final product generated from daidzin through daidzein and dihydrodaidzein. Inhibition of the growth of Clostridioides difficile by equol (100 μg/mL, 50 μg/mL), daidzein (50 μg/mL), and dihydrodaidzein (100 μg/mL, 50 μg/mL) was measured in the same manner as in Example 1.

Test [3] relates to Bacteroides fragilis (B. fragilis). The test can be described thus: Growth inhibition on other bacterial species: Bacteroides fragilis. As to conditions: 100 μg/mL.
The subject of test [4] is Clostridioides perfringens (C. perfringens (Clostridium perfringens)). The settings on record: 100 μg/mL; FIG. 4.
For another test, the system named is Clostridioides difficile. Description: Inhibition of sporulation of Clostridioides difficile (spore count). The settings on record: 100 μg/mL; added to medium grown to a saturated state; from day 2; FIG. 6. As for the experimental part:
To validate the influence of equol (100 μg/mL) on the sporulation of Clostridioides difficile, equol was added to a medium in which Clostridioides difficile had grown to a saturated state, and the number of spores formed was counted.

The test system of test [5] is Clostridioides difficile (NAP1/027 strain). Description: Influence on form of Clostridioides difficile (Gram staining). As to conditions: 100 μg/mL; after 8-day culture; FIG. 5. As for the experimental part:
The influence of equol on the form of Clostridioides difficile (NAP1/027 strain) was validated through staining of Clostridioides difficile with Gram staining under the action of equol (100 μg/mL) in the same manner as in Example 1.

On to `Oc1ccc([C@H]2COc3cc(O)ccc3C2)cc1` (stereo in doubt) [equol, 4′,7-isoflavandiol], for which the “influence on growth of Escherichia coli” value in test [1] is listed as “no influence was found”. Also, the entries for the “inhibition of the growth of Clostridioides difficile versus control” value in test [2] (50 μg/mL) and in test [2] (100 μg/mL) were “inhibited the growth of Clostridioides difficile to the same degree” and “an even higher degree of inhibition than them”, respectively. The “concentration dependence of growth inhibition” value in test [2] (equol 25 to 100 μg/mL, FIG. 1) was “the inhibition depended on the concentration of equol”. In addition, in test [2] (equol 100, 75, 50 or 25 μg/mL, 24 hours, anaerobic, 35° C., DMSO control, FIG. 1), the “growth of Clostridioides difficile (OD600) versus control” value is listed as “slower than that in the control”. In addition, in test [3] (52 hours of the test, FIG. 4), the “proliferation of Bacteroides fragilis” value is reported as “completely no proliferation”. Besides, the “viability of Bacteroides fragilis after transfer into a medium without equol” value in test [3] (transferred at the end of 52 hours of the test) is listed as “only the growth was inhibited, without killing the bacterium”. Further, the “influence on growth of Clostridioides perfringens” value in test [4] is “An influence was observed”. The “number of spores formed versus control” value in the test with Clostridioides difficile is recorded as “few spores”. Moreover, in test [5], the “form of cells (Gram staining) versus control” value is “forms longer and thinner than those of cells in the control”.
With `O=c1c(-c2ccc(O)cc2)coc2cc(O)ccc12` [daidzein, reference compound], in test [2] (50 μg/mL), the “inhibition of the growth of Clostridioides difficile versus control” value is given as “no clear difference from the control”.
As to `O=C1c2ccc(O)cc2OCC1c1ccc(O)cc1` (stereo not shown) [dihydrodaidzein, reference compound], the “inhibition of the growth of Clostridioides difficile versus control” value is “no clear difference from the control” in test [2] (50 μg/mL) and “inhibited the growth of Clostridioides difficile to the same degree” in test [2] (100 μg/mL).
